Source: US4956171A, “Transdermal drug delivery using a dual permeation enhancer and method of performing the same” (Paco Pharmaceutical Services, Inc., priority 1989, dated 1990)
Structures can show the parent of a compound that is named as a salt. Where two headings read alike, the source gives them in different places.

Tests used:
[1] = In vitro flux of drug from saturated test solutions through human cadaver skin into an infinite sink, Franz diffusion cell; assay type: in vitro ADME
Protocol: For the evaluation of the degree of permeation enhancement, saturated test solutions of buprenorphine HCl in methyl laurate and/or sucrose cocoate were directly applied onto the epidermis side of human cadaver skin loaded between donor and receptor compartments of a standard Franz diffusion cell. The cell was kept at 35° C. during the diffusion study. […] The sucrose cocoate used for the test is commercially available in a 48 wt. % aqueous solution under the trade name Crodesta® SL-40, through Croda, Inc.

[2] = In vitro release rate from the reservoir-type system into an infinite sink; settings: Example 1 reservoir-type system
[3] = optimized delivery system, constant rate over extended time periods
[4] = relative to morphine; background statement; cited from earlier work
[5] = cited from earlier work
[6] = on over dosage; cited from earlier work
[7] = Table 4, saturated in 48 wt. % sucrose cocoate aqueous solution
[8] = Table 4, saturated in 100 wt. % methyl laurate
[9] = Table 4, saturated in methyl laurate : 48 wt. % sucrose cocoate aqueous solution 3:7
[10] = Example 1 reservoir-type system, 35° C.

For `O=C(O)Cc1ccccc1Nc1c(Cl)cccc1Cl` [Dichlofenac Sodium], the “Flux, Solution A” value [1] was 14 μg/cm^2 /day, the “Flux, Solution A:B(3:7)” value [1] was 215 μg/cm^2 /day and the “Flux, Solution B” value [1] was 146 μg/cm^2 /day.
In the case of `CC(C)Cc1ccc(C(C)C(=O)O)cc1` (stereo not drawn) [Ibuprofen], the “Flux, Solution B” value [1, 7] is reported as 547 μg/cm^2 /day, the “Flux, Solution A” value [1, 8] is reported as 586 μg/cm^2 /day and the “Flux, Solution A:B(3:7)” value [1, 9] is reported as 1897 μg/cm^2 /day.
For `COC(=O)C1=C(C)NC(C)=C(C(=O)OC)C1c1ccccc1[N+](=O)[O-]` [Nifedipine], the “Flux, Solution B” value [1, 7] was 14 μg/cm^2 /day, the “Flux, Solution A” value [1, 8] was 15 μg/cm^2 /day and the “Flux, Solution A:B(3:7)” value [1, 9] was 23 μg/cm^2 /day.
In the case of `C[C@]12C=CC(=O)C=C1CC[C@@H]1[C@@H]2[C@@H](O)C[C@@]2(C)[C@H]1CC[C@]2(O)C(=O)CO` [Prednisolone], the “Flux, Solution B” value [1, 7] is reported as 8 μg/cm^2 /day, the “Flux, Solution A” value [1, 8] is reported as 51 μg/cm^2 /day and the “Flux, Solution A:B(3:7)” value [1, 9] is reported as 188 μg/cm^2 /day.
For `CO[C@]12CC[C@@]3(C[C@@H]1[C@](C)(O)C(C)(C)C)[C@H]1Cc4ccc(O)c5c4[C@@]3(CCN1CC1CC1)[C@H]2O5` [buprenorphine HCl], the amount delivered (Example 1 reservoir-type system, during the 72 hour period) was 360 μg/cm^2, the “loaded amount transdermally delivered” value (Example 1 reservoir-type system, over 72 hours, initial load about 1800 μg/cm^2) was “about 20 wt. %” and the “skin flux, Solution B” value ([1]; Table 3, saturated in 48 wt. % sucrose cocoate aqueous solution, 35° C.) was 100 μg/cm^2 /day. The “skin flux, Solution A” value ([1]; Table 3, saturated in 100 wt. % methyl laurate, 35° C.) was 8 μg/cm^2 /day and the “skin flux, Solution A:B(1:9)” value ([1]; Table 3, saturated in methyl laurate : 48 wt. % sucrose cocoate aqueous solution 1:9, 35° C.) was 226 μg/cm^2 /day.
With `CO[C@]12CC[C@@]3(C[C@@H]1[C@](C)(O)C(C)(C)C)[C@H]1Cc4ccc(O)c5c4[C@@]3(CCN1CC1CC1)[C@H]2O5` [buprenorphine] the “release through the microporous membrane” value ([2]; infinite sink) was “rapid release”, the “loaded amount depleted by release into an infinite sink” value ([2]; within the first 12 hours) was “more than 70 wt. %” and the skin irritation [3] was “without uncomfortable skin irritation”. For the same molecule, the “analgesic activity, times more potent than morphine” value [4] was ~30 times, the “steady state buprenorphine flux” value (Example 1 reservoir-type system, 3 wt. % buprenorphine HCl, 35° C.) was “about 5 μg/cm^2 /hr” and the “period over which flux stayed at a constant rate” value [10] was 72 h. For the same molecule, the “time to steady state flux” value [10] was “an hour”, the “period over which steady state flux remained substantially constant” value (Example 3 laminated matrix-type system) was 72 h and the “steady state buprenorphine flux” value (Example 3 laminated matrix-type system, 5.5 wt. % buprenorphine HCl) was “about 3.5 μg/cm^2 /hr”. For the same molecule, the “in vitro human cadaver skin delivery rate” value (dual permeation enhancer sucrose cocoate + methyl laurate, full range) was 1-10 μg/cm^2 /hr, the “in vitro human cadaver skin delivery rate, preferable range” value (dual permeation enhancer sucrose cocoate + methyl laurate, preferably) was 2-6 μg/cm^2 /hr and the “liver and intestinal metabolism” value ([5]; background statement) was “extensive liver and intestinal metabolism”. The bioavailability ([5]; due to extensive liver and intestinal metabolism) was “poor bioavailability” and the side effects [6] was “severe side effects, particularly respiratory depression”.
With `C[C@]12CC[C@@H]3c4ccc(O)cc4CC[C@H]3[C@@H]1CC[C@@H]2O` [Estradiol] the “Flux, Solution B” value [1, 7] was 7.4 μg/cm^2 /day and the “Flux, Solution A” value [1, 8] was 4.3 μg/cm^2 /day.
